Test results as given in ChEMBL document CHEMBL3507680, “University of Dundee, Gates Library screen for HepG2 cell viability”.

Experiment: Human HepG2 cell viability assay in 384 well format
Format: toxicity, cell-based
Design: dose 125 nL, time 70.5 hour; concentration not given beside the values
Settings: HepG2 cells, read-out: Inhibition

Structure (SMILES) | cytotoxicity at 70.5 h
CCCn1ncc(C(=O)N(C)Cc2n[nH]c3c2CCC3)c1C | -11.7%
c1ccc(C(CC2CN(Cc3c[nH]cn3)CCO2)c2ccccc2)cc1 (centres undefined) | -5.4%
CN(Cc1c(F)cccc1Cl)C(=O)Cn1cnc(C#N)n1 | -7.04%
CC(C)c1nccn1CCC(=O)NCC(C)(O)c1ccco1 (centres undefined) | -5.68%
CC(O)CCN(C)C(=O)Nc1cc(F)cc(Br)c1 (centres undefined) | 1.72%
CC(C)N1CCC(N2CCOC3(CCCC3)C2)C1=O (centres undefined) | -6.53%
c1ccc(-c2nc(CNCC3CCCN3c3cccnn3)co2)cc1 (centres undefined) | 12.4%
COc1ccccc1CC(C)N(C)S(C)(=O)=O (centres undefined) | -6.61%
CN(C)CCn1ccc(NC(=O)NC(C)(C)c2nccs2)n1 | -12.6%
Cc1cc(C)nc(N(C)CCN(C)C2CCCC2)n1 | -6.11%
FC(F)(F)C1CCc2nnc(CNCc3ccsc3)n2C1 (centres undefined) | -2.38%
COc1cc(C(=O)NS(=O)(=O)c2ccc(C#N)cc2)ccc1C | -5.03%
Cn1cc(Cl)cc1C(=O)N1CCC2(CCCN(CC3CCC3)C2=O)C1 (centres undefined) | 18.1%
Cc1ccc(CN(Cc2c[nH]cn2)C2CC(C)(C)NC(C)(C)C2)o1 | -9.95%
COc1ccc(CN2C[C@H]3CN(C(=O)c4ccno4)CCN3C2=O)cc1 | -7.88%
CC(C)(C)c1nc(CC(=O)N2CCCC(n3cncn3)C2)cs1 (centres undefined) | -1.77%
CC(N)Cc1ccccc1Sc1ccc(O)cc1 (centres undefined) | -7.28%
CNC(=O)NC(=O)CN1CCN(CC2CC2)c2ccccc21 | 1.66%
CCOc1ccccc1CNC1CCCN(Cc2noc(C)n2)C1 (centres undefined) | -9.86%
CCOC1CC2(CCN(Cc3nccn3C)CC2)C1 | -0.734%
CN1CCCN(C[C@H]2C[C@H](CO)CN(Cc3cccnc3N)C2)CC1 | 22.4%
c1ccc(CO[C@H]2C[C@@H]3CN(Cc4cccnc4)C[C@@H]3C2)cc1 | -3.52%
CC(C)n1c(=O)nc2n1C(=O)N(c1ccc(Br)cc1)C2 | -16.1%

Structure (SMILES) | cytotoxicity at 70.5 h
CCOc1ccc2[nH]c(=O)c(CN3CCC(N4CCCC4)CC3)cc2c1 | -4.41%
CC1CCCN(c2ccc(C(N)=O)cc2NC(=O)CC2=CCNCC2)C1 (centres undefined) | -17.5%
CCCc1nc(CN(CC)Cc2ccc(S(C)(=O)=O)cc2)no1 | 10.1%
O[C@H]1CN(Cc2ccnc(N3CCCC3)n2)CC[C@@]12CCCO2 | -9.21%
CCOCCCNS(=O)(=O)c1ccc2c(c1)NC(=O)C(C)O2 (centres undefined) | 12.7%
O=C(c1cccnc1)N1CCc2onc(CN3CCCC3)c2C1 | -4.02%
CO[C@@H]1CCN(Cc2nccs2)C[C@@H]1Cc1ccccc1 | -11.2%
CCN1CC2(CCN(C(=O)C3CSC(C)(C)C(=O)N3)CC2)CC1=O (centres undefined) | -6.11%
CC(C)(C)NS(=O)(=O)c1ccccc1CNCc1ccccc1 | -5.72%
Cc1ncc(S(C)(=O)=O)c(N2Cc3ccccc3C2)n1 | 2.76%
CC(=O)c1ccc(NC(=O)c2ccc3c(c2)C2(CCCCC2)CN3)cc1 | -9.32%
Cc1nc[nH]c1-c1nccn1CCN(C)S(C)(=O)=O | 3.1%
O=C(c1cccnc1N1CCOC(c2ccc(Cl)cc2)C1)N1CCCC1 (centres undefined) | -5.24%
Cc1ccsc1C(Cc1ccccc1)NC(=O)CSCC(N)=O (centres undefined) | -4.76%
COCCOCC(=O)NC(C#N)c1cccc(Cl)c1Cl (centres undefined) | -6.94%
CCN1CCC(NC(=O)CN2CCc3c(ncn3C3CC3)C2)CC1 | -9.11%
CN(Cc1ccncc1)C1CC2(CCN(C(=O)c3ccnnc3)CC2)C1 | -9.02%
CCc1ccc(N2CCC(NS(=O)(=O)N(CC)CC)CC2)cc1 | -5.14%
Cc1nc(O)c2nnn(C[C@H]3CCCN3C(=O)c3cccc(F)c3)c2n1 | -7.83%
O=C(c1ccnc(C2CCNCC2)c1)N1CCCOCC1 | -1.42%
O=C1N(CCC2CCCCC2)CCCC1(O)CNCCc1ccccc1 (centres undefined) | 0.277%
CCc1nc(NS(=O)(=O)c2ccc(F)cc2C)no1 | -5.01%
CC(C)OCc1ncn2c1CN(CCO)CCC2 | -0.995%

Structure (SMILES) | cytotoxicity at 70.5 h
Cn1ncc2c(N3CCS(=O)(=O)CC3)nc(-c3cccnc3)nc21 | 6.33%
CNc1cc(C(=O)N2CCOC(C(=O)NC3CCCC3)C2)ccn1 (centres undefined) | -2.84%
Cn1nc2c(cc1=O)CN(Cc1nc(-c3ccco3)no1)CC2 | -7.45%
CN(C)CC(=O)N1C[C@@H](Oc2ccccn2)[C@H]2OCCC[C@H]21 | 9.63%
CCN(Cc1cnn(C)c1)C(=O)c1ccccc1O | -6.92%
Cn1nnc2c1C(COCC1CC1)CN(C(=O)C1=CCCC1)C2 (centres undefined) | -9.91%
Cc1nc(C)n(CC2CCCN2Cc2coc(-c3cccs3)n2)n1 (centres undefined) | -115%
CCC(CNS(=O)(=O)c1cccc(C(=O)OC)c1)N1CCCC1 (centres undefined) | -10.7%
CCCN1CCN(C(=O)c2ccc(Cl)cn2)[C@H]2CS(=O)(=O)C[C@H]21 | -10.4%
O=C(C1CCOCC1)N1CC[C@H]2C[C@@H](c3ccncn3)O[C@@H]2C1 | -8.58%
O=C(Nc1cc(-c2cccnc2)no1)C1CCCCC1 | -4.13%
CC(C)c1nc(C2CCCN(C(=O)CCCn3ccnc3)C2)no1 (centres undefined) | -0.752%
CCCc1nc(CN2CCOC(CNc3cccnn3)C2)cs1 (centres undefined) | -11.7%
COc1ccc(-c2c(C(C)C)nn3c(=N)c(C#N)n[nH]c23)cc1 | -20.1%
CC(Cn1cccn1)NCc1csc(COc2ccc(F)cc2)n1 (centres undefined) | -1.54%
CCc1nc2n(n1)CC(NCC(=O)Nc1cc(C)on1)CC2 (centres undefined) | 12.5%
CC(=O)N(Cc1ncc(C)o1)C1CCN(Cc2ccc(F)c(F)c2)C1 (centres undefined) | -4.3%
Cc1nn(C)c(C)c1C1CCCN1C(=O)CCCn1cccn1 (centres undefined) | -14.1%
CC(=O)N1CCC(N2CC[C@H](c3nc4cc(C)ccc4o3)C2)CC1 | -1.07%
CC(NCc1cc(F)ccc1F)c1ccc(OCC(=O)NC2CC2)cc1 (centres undefined) | -1.77%
CC(=O)Nc1ccc(CNc2ccn(Cc3ccccc3)n2)cc1 | -3.05%
CC1CCN(C(=O)Cn2nc(Br)nc2Br)CC1 | -5.71%
O=C(c1cccc(Cl)c1F)N1CCOC2(CNCCOC2)C1 (centres undefined) | 32.2%

Structure (SMILES) | cytotoxicity at 70.5 h
COC[C@@]12CCO[C@@H]1CCN(C(=O)Cc1ccccc1C)C2 | -3.36%
Brc1csc(CNCc2nnc3n2CCC3)c1 | -12.4%
Cc1cncc(C(=O)N2CCCC(O)(CN(C)C)CC2)c1 (centres undefined) | 7.68%
CCCc1ccc2oc(C(=O)N3CCN(CCC(N)=O)CC3)c(C)c2c1 | 19.5%
O=S(=O)(C1CC1)N1CCOC2(CCCN(c3ccccc3)C2)C1 (centres undefined) | 7.04%
CC(=O)N1CCC2(CCN(CC3CCOC3)C2)CC1 (centres undefined) | -1.33%
O=S(=O)(c1ccc(F)cc1)N1CC[C@H]2[C@H]1CCN2c1ncccn1 | -2.97%
CN(C(=O)c1ccncc1Cl)c1ccccc1S(C)(=O)=O | 12.1%
COCCN1CC[C@@H]2CN(Cc3cccnc3OC)C[C@@H]2C1 | 13.9%
NC(=O)C1CN(C(=O)Nc2ccccc2SC(F)(F)F)CCO1 (centres undefined) | -10.6%
CO[C@@H]1CN(c2ccccc2)S(=O)(=O)[C@@]12CCNC2 | 11.6%
CCOCc1ccc(NC(=O)C(C)C)cc1 | 19.1%
CNC(=O)[C@H]1CO[C@H]2CCN(c3ncc(F)cn3)C[C@H]2C1 | -8.64%
COCc1ncn2c1CN(S(=O)(=O)Cc1ccc(C)cc1)CC2 | -10.2%
CC(C)C(=O)N1CCC2(CCCN(CCOc3ccccc3)C2)C1 (centres undefined) | -8.26%
CC1CCN(C(=O)CCN2Cc3ccccc3C[C@H]2C(N)=O)C1 (some centres undefined) | -6.72%
CC(=O)N1CCCC1c1nnn2cc(-c3ccncc3)ccc12 (centres undefined) | -5.32%
c1cnnc(N2CCCC2CNCc2cscn2)c1 (centres undefined) | -15%
COc1cc(CN2CC[C@@]3(CCCO3)[C@@H](O)C2)ccc1F | -7.93%
CCC(=O)N1CCC(c2ncc3c(n2)CCNC3)CC1 | -4.58%
O=C(C1CCCC1)N1CCCC(c2cccc(-n3ccnc3)n2)C1 (centres undefined) | 16.6%
Cc1ccc(N2N=C(C(N)=O)S(=O)(=O)c3cccnc32)cc1 | -2.2%
O=C(CN1CCCC(c2ccn[nH]2)C1)N1CCCc2ccccc21 (centres undefined) | 15.3%

Structure (SMILES) | cytotoxicity at 70.5 h
Cc1ccc(CNC2CCc3[nH]c(=O)ccc3C2)cc1C (centres undefined) | 2.24%
C[C@@H](NC(=O)c1cccn1C)c1c(-c2ccc(Cl)cc2)noc1C(=O)O | -7.66%
Clc1ccc(COCC2CCN(Cc3ccccn3)CC2)cc1 | -0.416%
Cc1cnn(CC2CCN(CC(O)CN3CCC(C)CC3)CC2)c1 (centres undefined) | -4.29%
Cc1noc(-c2ccnc(N3CCC(CN4CCOCC4)CC3)c2)n1 | 11%
CNC(=O)c1nc(COc2ccc3c(c2)OCO3)no1 | -9.82%
CS(=O)(=O)c1cccc(S(=O)(=O)NC(=O)CC2CCCCC2)c1 | -4.36%
CCn1ncnc1CN(C/C=C/c1ccccc1)CCOC | -1.42%
COc1ccccc1N1CCN(CC[C@H](O)c2ccccc2)CC1=O | -12%
CCN(CC1CCOC1)C(=O)c1cc(F)ccc1N1CCN(C)CC1 (centres undefined) | 46%
N#Cc1cccc(NC2CC(=O)N(C3Cc4ccccc4C3)C2)n1 (centres undefined) | 19%
Cc1nc(CN2CCOCC3(CCN(c4ccccn4)C3)C2)cs1 (centres undefined) | -40.4%
CCc1nnsc1C(=O)NCCc1nnc2n1CCC2 | -7.69%
COc1ccc2c(c1)C(=O)CC1(CCN(Cc3ccc(F)cc3)CC1)O2 | 21.7%
Clc1ccc(CN2CCC(C3CCN(Cc4cccnc4)CC3)C2)cc1 (centres undefined) | -2.87%
Cc1cccc(Nc2ccc(C3CCN(Cc4ncc[nH]4)CC3)nc2)n1 | 0.422%
O=C(N[C@@H]1CCC[C@@H](n2ccnc2)[C@@H]1O)c1ccc2c(c1)CCCC2 | 30.9%
Cc1csc(N2CCN(CC(=O)NC3CCOCC3)CC2C)n1 (centres undefined) | -1.39%
Cc1cc(C2CCC2)nc(N2CC(n3cccn3)C2)n1 | -4.39%
CN(C)C(=O)CCC1CCCN(Cc2ccc(-c3cccnc3)cc2)C1 (centres undefined) | -10.4%
CC(C)CCNc1nnc(C(C)C)s1 | -3.84%
CCNCCc1nc2cc(F)ccc2[nH]1 | -4.56%
